Measured values published in patent US20230399287A1, “NOVEL COMPOUNDS” (Sitryx Therapeutics Limited, priority 2020, published 2023).
Where a name gives a salt, the structure may show the parent alone.

What was measured:
IL-1β = assay: THP-1 AlphaLISA IL-1β cytokine assay; assay type: cell-based; details: LPS 24 hr then Nigericin 1 hour
Method: (§1) Measuring Inhibitory Effects on IL-1V and IL-6 Cytokine Output from THP-1s
(§2) The cytokine inhibition profiles of compounds of formula (I) were determined in a differentiated THP-1 cell assay. All assays were performed in RPMI-1640 growth medium (Gibco), supplemented with 10% fetal bovine serum (FBS; Gibco), 1% penicillin-streptomycin and 1% sodium pyruvate unless specified otherwise. The IL-1β and IL-6 cytokine inhibition assays were run in a background of differentiated THP-1 cells as described below. All reagents described were from Sigma-Aldrich unless specified otherwise. Compounds were prepared as 10 mM DMSO stocks.
(§3) THP-1 cells were expanded as a suspension up to 80% confluence in appropriate growth medium. Cells were harvested, suspended, and treated with an appropriate concentration of phorbol 12-myristate 13-acetate (PMA) over a 72 hr period (37° C./5% CO2).
(§4) Following 72 hrs of THP-1 cell incubation, cellular medium was removed and replaced with fresh growth media containing 1% of FBS. Working concentrations of compounds were prepared separately in 10% FBS treated growth medium and pre-incubated with the cells for 30 minutes (37° C./5% CO2). Following the 30 minute compound pre-incubation, THP-1s were treated with an appropriate concentration of LPS and the THP-1s were subsequently incubated for a 24 hr period (37° C./5% CO2). An appropriate final concentration of Nigericin was then dispensed into the THP-1 plates and incubated for 1 hour (37° C./5% CO2) before THP-1 supernatants were harvested and collected in separate polypropylene 96-well holding plates.
(§5) Reagents from each of the IL-1β and IL-6 commercial kits (Perkin Elmer) were prepared and run according to the manufacturer's instructions. Subsequently, fluorescence signal detection in a microplate reader was measured (EnVision® Multilabel Reader, Perkin Elmer).
(§6) Percentage inhibition was calculated per cytokine by normalising the sample data to the high and low controls used within each plate (+/−LPS respectively). Percentage inhibition was then plotted against compound concentration and the 50% inhibitory concentration ([…]) was determined from the resultant concentration-response curve.

IL-6 = assay: THP-1 AlphaLISA IL-6 cytokine assay; assay type: cell-based; details: LPS 24 hr then Nigericin 1 hour
Method: as §1, §2, §3, §4, §5, §6

hepatocytes [1] = assay: Hepatocyte stability assay (human); assay type: in vitro ADME; details: 10 μM compound, 60 min
From the text: (§7) Defrosted cryo-preserved hepatocytes (viability>70%) were used to determine the metabolic stability of a compound via calculation of intrinsic clearance (Clint; a measure of the removal of a compound from the liver in the absence of blood flow and cell binding). Clearance data are particularly important for in vitro work as they can be used in combination with in vivo data to predict the half-life and oral bioavailability of a drug.
(§8) The metabolic stability in hepatocytes assay involved a time-dependent reaction using both positive and negative controls. The cells must be pre-incubated at 37° C. then spiked with test compound (and positive control); samples taken at pre-determined time intervals were analysed to monitor the change in concentration of the initial drug compound over 60 minutes. A buffer incubation reaction (with no hepatocytes present) acted as a negative control and two cocktail solutions, containing compounds with known high and low clearance values (verapamil/7-hydroxycoumarin and propranolol/diltiazem), acted as positive controls. • 1. The assay was run with a cell concentration of 0.5×10^6 cells/mL in Leibovitz buffer. • 2. All compounds and controls were run in duplicate. • 3. Compound concentration was 10 μM. • 4. All compounds and controls were incubated with both cells and buffer to show turnover is due to hepatic metabolism. • 5. All wells on the incubation plate had 326.7 μL of either cells or buffer added. • 6. Prior to assay, cell and buffer-only incubation plates were preincubated for 10 mins at 37° C. • 7. The assay was initiated by adding compounds, 3.3 μL of 1 mM in 10% DMSO-90% Buffer; final DMSO concentration is 0.1%. • 8. Samples were taken at regular timepoints (0, 5, 10, 20, 40, 60 min) until 60 mins. • 9. Sample volume was 40 μL and added to 160 μL of crash solvent (acetonitrile with internal standard) and stored on ice. • 10. At the end of the assay, the crash plates were centrifuged at 3500 rpm for 20 mins at 4° C. • 11. 80 μL of clear supernatant was removed and mixed with 80 μL of deionised water before being analysed by LC-MS/MS.
(§9) Raw LC-MS/MS data were exported to, and analysed in, Microsoft Excel for determination of intrinsic clearance. The percentage remaining of a compound was monitored using the peak area of the initial concentration as 100%. Intrinsic clearance and half-life values were calculated using a graph of the natural log of percentage remaining versus the time of reaction in minutes. Half-life (min) and intrinsic clearance (Clint in μL min^−1 10^−6 cells) values were calculated using the gradient of the graph (the elimination rate constant, k) and Equations 1 and 2.

hepatocytes [2] = assay: Hepatocyte stability assay (mouse); assay type: in vitro ADME; details: 10 μM compound, 60 min
From the text: as §7, §8, §9

NRF2 = NRF2 +/- GSH activation assay (DiscoverX PathHunter NRF2 translocation kit); assay type: cell-based; details: for EC50: U2OS PathHunter cells; for NRF2 activation Emax / Emax: normalised to dimethyl fumarate high control
[3] = Hepatocyte stability assay (mouse); assay type: in vitro ADME; details: mouse, cryopreserved hepatocytes, 10 μM compound, 60 min, read-out: T½
From the text: as §7, §8, §9

[4] = Homo sapiens, THP-1, differentiated THP-1 cells

Row | Structure (SMILES) | IC50 (IL-1β; [4]) [µM] | IC50 (IL-6; [4]) [µM] | further results
1 | C#CC(OC(=O)CC(=C)C(=O)O)c1ccc(C(F)(F)F)cc1 (single isomer, unassigned) [Example 37, 2-methylene-4-oxo-4-((1-(4-(trifluoromethyl)phenyl)prop-2-yn-1-yl)oxy)butanoic acid] | 14.5 | – | IC50 (IL-6; differentiated THP-1 cells): > 31.6 µM; Clint (hepatocytes [1]): <3 μL min^−1 10^−6 cells; T½ (hepatocytes [1]): >460 min; Clint (hepatocytes [2]): 34 μL min^−1 10^−6 cells; T½ (hepatocytes [2]): 48 min
2 | C#CC(OC(=O)CC(=C)C(=O)O)c1ccc(C(F)(F)F)cc1 (single isomer, unassigned) [Example 38, 2-methylene-4-oxo-4-((1-(4-(trifluoromethyl)phenyl)prop-2-yn-1-yl)oxy)butanoic acid] | – | – | IC50 (IL-1β; differentiated THP-1 cells): 9.4 µM; IC50 (IL-6; differentiated THP-1 cells): > 100 µM; Clint (hepatocytes [1]): 7 μL min^−1 10^−6 cells; T½ (hepatocytes [1]): 183 min; Clint (hepatocytes [2]): 13 μL min^−1 10^−6 cells; T½ (hepatocytes [2]): 163 min
3 | C=C(CC(=O)OC1(c2ccc(C(F)(F)F)cc2)CC(C(F)(F)F)C1)C(=O)O (single isomer, unassigned) [Example 43, 2-methylene-4-oxo-4-(3-(trifluoromethyl)-1-(4-(trifluoromethyl)phenyl)cyclobutoxy)butanoic acid] | 83.5 | > 100 | –
4 | C=C(CC(=O)OCCCCCCCC)C(=O)O [4-octyl itaconate, reference compound] | – | – | IC50 (IL-1β; differentiated THP-1 cells): 38.3 µM; IC50 (IL-6; differentiated THP-1 cells): 20.3 µM; EC50 (NRF2; +GSH): 28.9 µM; NRF2 activation Emax (NRF2; +GSH): 148%; EC50 (NRF2; −GSH): 22.1 µM; NRF2 activation Emax (NRF2; −GSH): 165%; Clint (hepatocytes [1]): 401 μL min^−1 10^−6 cells; T½ (hepatocytes [1]): 4 min; Clint (hepatocytes [2]): 351 μL min^−1 10^−6 cells; T½ (hepatocytes [2]): 4 min
5 | C=C(CC(=O)O[C@H](C)c1ccc(C(F)(F)F)cc1)C(=O)O [Example 3, (R)-2-methylene-4-oxo-4-(1-(4-(trifluoromethyl)phenyl)ethoxy)butanoic acid] | 33.6 | > 56.2 | –
6 | C=C(CC(=O)OC1(c2ccc(C(F)(F)F)cc2Cl)CCC1)C(=O)O [Example 6, 4-(1-(2-chloro-4-(trifluoromethyl)phenyl)cyclobutoxy)-2-methylene-4-oxobutanoic acid] | 45.4 | > 100 | –
7 | C=C(CC(=O)OC(CC)c1ccc(C(F)(F)F)cc1)C(=O)O (stereo not shown) [Example 10, 2-methylene-4-oxo-4-(1-(4-(trifluoromethyl)phenyl)propoxy)butanoic acid] | 5.8 | > 100 | Emax (NRF2; +GSH): 13%; EC50 (NRF2; Homo sapiens, U2OS, +GSH): > 100 µM; EC50 (NRF2; Homo sapiens, U2OS, −GSH): > 100 µM; Emax (NRF2; −GSH): 0%
8 | C=C(CC(=O)OC1(c2ccc(C)c(Cl)c2)CCC1)C(=O)O [Example 14, 4-(1-(3-chloro-4-methylphenyl)cyclobutoxy)-2-methylene-4-oxobutanoic acid] | 24.5 | > 100 | –
9 | C=C(CC(=O)OC1(c2ccc(OC(F)(F)F)cc2)CCC1)C(=O)O [Example 15, 2-methylene-4-oxo-4-(1-(4-(trifluoromethoxy)phenyl)cyclobutoxy)butanoic acid] | 15.9 | > 100 | –
10 | C=C(CC(=O)OC1(c2ccc(-c3ccc(F)cc3)cc2)CCC1)C(=O)O [Example 16, 4-(1-(4′-fluoro-[1,1′-biphenyl]-4-yl)cyclobutoxy)-2-methylene-4-oxobutanoic acid] | > 100 | 21.5 | –
11 | C=C(CC(=O)OC1(c2ccc(C(F)(F)c3ccccc3)cc2)CCC1)C(=O)O [Example 28, 4-(1-(4-(difluoro(phenyl)methyl)phenyl)cyclobutoxy)-2-methylene-4-oxobutanoic acid] | > 31.6 | 19.6 | –
12 | C=C(CC(=O)O[C@@H](c1ccc(C(F)(F)F)cc1)C(F)(F)F)C(=O)O [Example 33, (S)-2-methylene-4-oxo-4-(2,2,2-trifluoro-1-(4-(trifluoromethyl)phenyl)ethoxy)butanoic acid] | > 56.2 | > 63.1 | –
13 | C=C(CC(=O)OC1(c2ccc(C(F)(F)F)cc2)CN(C)C1)C(=O)O [Example 48, 4-((1-methyl-3-(4-(trifluoromethyl)phenyl)azetidin-3-yl)oxy)-2-methylene-4-oxobutanoic acid] | 58.4 | > 31.6 | –
14 | C=C(CC(=O)OC1(c2cc(F)c(C(F)(F)F)c(F)c2)CCC1)C(=O)O [Example 53, 4-(1-(3,5-difluoro-4-(trifluoromethyl)phenyl)cyclobutoxy)-2-methylene-4-oxobutanoic acid] | 29.7 | > 100 | –
15 | C=C(CC(=O)OC1(c2ccc3cc(Br)ccc3c2)CCC1)C(=O)O [Example 54, 4-(1-(6-bromonaphthalen-2-yl)cyclobutoxy)-2-methylene-4-oxobutanoic acid] | > 100 | 18.1 | –
16 | C=C(CC(=O)OCc1ccc(C(F)(F)F)c(F)c1)C(=O)O [Example 55, 4-((3-fluoro-4-(trifluoromethyl)benzyl)oxy)-2-methylene-4-oxobutanoic acid] | 19.5 | > 100 | half-life at 10 μM [3]: 55 min; Clint (hepatocytes [2]): 29 μL min^−1 10^−6 cells
17 | C=C(CC(=O)OCc1ccc(C(F)(F)F)cn1)C(=O)O [Example 56, 2-methylene-4-oxo-4-((5-(trifluoromethyl)pyridin-2-yl)methoxy)butanoic acid] | 46.2 | > 100 | –
18 | C=C(CC(=O)OC1(C#Cc2ccc(C(F)(F)F)cc2)CCC1)C(=O)O [Example 60, 2-methylene-4-oxo-4-(1-((4-(trifluoromethyl)phenyl)ethynyl)cyclobutoxy)butanoic acid] | > 100 | 34.1 | –
19 | C=C(CC(=O)OC1(c2cnc(C(F)(F)F)cn2)CCC1)C(=O)O [Example 63, 2-methylene-4-oxo-4-(1-(5-(trifluoromethyl)pyrazin-2-yl)cyclobutoxy)butanoic acid] | 50.9 | > 31.6 | –
20 | COC(=O)/C=C/C(=O)OC [dimethyl fumarate, reference compound] | – | 9.3 | IC50 (IL-1β; differentiated THP-1 cells): 14.4 µM; Emax (NRF2; +GSH): 19%; EC50 (NRF2; Homo sapiens, U2OS, +GSH): > 100 µM; EC50 (NRF2; Homo sapiens, U2OS, −GSH): 6 µM; Emax (NRF2; −GSH): 100%
21 | C=C(CC(=O)OC)C(=O)OC [dimethyl itaconate, reference compound] | > 100 | 100 | Emax (NRF2; +GSH): 77%; Emax (NRF2; −GSH): 137%
